# Source: ChEMBL document CHEMBL5625250, “Discovery of novel flavonoid-based CDK9 degraders for prostate cancer treatment via a PROTAC strategy” (Eur J Med Chem, 2023)
# Calls of active or inactive are those of the source. No cut-off for these calls is given here.
# How the values were obtained:
# [1] = Solubility of the compound in water at pH 7.4 by shake flask method; assay type: physicochemical
# [2] = Half life in Sprague-Dawley rat at 2 mg/kg, iv by LC-MS/MS analysis; assay type: ADME, organism-based; conditions: in vivo
# CWR22R [3] = assay: Antitumor activity against human 22Rv1 cells assessed as complete reduction in colony formation at 60 nM incubated for 2 weeks by crystal violet staining based assay; assay type: functional; design: scale not given: the % may be the effect or the level left
# CWR22R [4] = assay: Antiproliferative activity against human 22Rv1 cells assessed as reduction in cell viability incubated for 72 hrs by SRB assay; assay type: functional, cell-based; conditions: 22Rv1, 72 h
# CWR22R [5] = assay: Antitumor activity against human 22Rv1 cells xenografted in BALB/c mouse assessed as tumor growth inhibition at 10 mg/kg, iv administered for 20 days relative to control; assay type: functional; conditions: 22Rv1, 480 h, time 20 day, read-out: TGI
# CWR22R [6] = assay: In vivo degradation of c-Myc protein level in human 22Rv1 cells xenografted in BALB/c mouse tumor at 20 mg/kg, iv administered for 18 days by immunohistochemistry analysis; assay type: functional, organism-based; conditions: time 18.0 day
# CWR22R [7] = assay: Antitumor activity against human 22Rv1 cells assessed as complete reduction in colony formation incubated for 2 weeks by crystal violet staining based assay; assay type: functional, cell-based; conditions: dose 7.8-62.5 nM
# [8] = target: T1, Protein cereblon/Cyclin-dependent kinase 9 (Homo sapiens, UniProt P50750+Q96SW2); assay: PROTAC activity at CRBN/CDK9 in human 22Rv1 cells assessed as degradation of CDK9 protein at 100 nM by Western blotting analysis; assay type: cell-based; conditions: time 2-24 hrs, TDE = time-dependent effect
# Target sequence in this assay (P50750 whole entry, looked up): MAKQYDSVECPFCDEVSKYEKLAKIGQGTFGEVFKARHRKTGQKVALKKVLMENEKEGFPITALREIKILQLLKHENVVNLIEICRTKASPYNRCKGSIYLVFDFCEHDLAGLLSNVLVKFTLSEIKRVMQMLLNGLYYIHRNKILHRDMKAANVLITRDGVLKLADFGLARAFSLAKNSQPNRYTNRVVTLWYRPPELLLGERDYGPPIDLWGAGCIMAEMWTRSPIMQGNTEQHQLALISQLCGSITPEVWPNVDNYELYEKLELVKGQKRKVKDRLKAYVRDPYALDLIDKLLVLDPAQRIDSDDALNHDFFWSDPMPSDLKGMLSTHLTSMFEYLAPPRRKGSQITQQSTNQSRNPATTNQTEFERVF
# Target sequence in this assay (Q96SW2 whole entry, looked up): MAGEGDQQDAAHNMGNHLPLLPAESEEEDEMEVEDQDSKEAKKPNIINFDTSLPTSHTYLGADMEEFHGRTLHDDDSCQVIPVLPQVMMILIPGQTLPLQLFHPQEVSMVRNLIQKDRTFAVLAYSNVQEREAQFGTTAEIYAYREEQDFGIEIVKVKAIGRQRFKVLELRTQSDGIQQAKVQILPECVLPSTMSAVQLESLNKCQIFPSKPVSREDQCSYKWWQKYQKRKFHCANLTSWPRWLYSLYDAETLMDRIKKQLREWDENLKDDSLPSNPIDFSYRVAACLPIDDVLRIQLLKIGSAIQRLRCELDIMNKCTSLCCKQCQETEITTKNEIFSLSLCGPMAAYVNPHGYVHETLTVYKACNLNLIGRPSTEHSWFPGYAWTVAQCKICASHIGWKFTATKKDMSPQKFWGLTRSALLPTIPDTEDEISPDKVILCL
# [9] = Metabolic stability in human liver microsome assessed as half life at 10 uM by LC-MS/MS analysis; assay type: ADME; conditions: liver microsomes
# [10] = Apparent volume of distribution in Sprague-Dawley rat at 2 mg/kg, iv by LC-MS/MS analysis; assay type: ADME, organism-based; conditions: in vivo, read-out: Vz
# [11] = target: T1, Protein cereblon/Cyclin-dependent kinase 9; assay: PROTAC activity at CRBN/CDK9 in human 22Rv1 cells assessed as degradation of CDK9 protein at 500 nM incubated for 12 hrs by Western blotting analysis; assay type: cell-based
# Target sequence in this assay (P50750 whole entry, looked up): as the sequence (P50750 whole entry, looked up) above
# Target sequence in this assay (Q96SW2 whole entry, looked up): as the sequence (Q96SW2 whole entry, looked up) above
# [12] = target: T1, Protein cereblon/Cyclin-dependent kinase 9; assay: PROTAC activity at CRBN/CDK9 in human 22Rv1 cells assessed as degradation of CDK9 protein at 0.1 uM incubated for 12 hrs in presence of MG132 by Western blotting analysis; assay type: cell-based
# Target sequence in this assay (P50750 whole entry, looked up): as the sequence (P50750 whole entry, looked up) above
# Target sequence in this assay (Q96SW2 whole entry, looked up): as the sequence (Q96SW2 whole entry, looked up) above
# CWR22R [13] = assay: Antitumor activity against human 22Rv1 cells xenografted in BALB/c mouse assessed as tumor growth inhibition at 20 mg/kg, iv administered for 20 days relative to control; assay type: functional; conditions: 22Rv1, 480 h, time 20 day, read-out: TGI
# [14] = target: T1, Protein cereblon/Cyclin-dependent kinase 9; assay: PROTAC activity at CRBN/CDK9 in human 22Rv1 cells assessed as reduction in c-Myc expression incubated for 24 hrs by Western blotting analysis; assay type: cell-based; conditions: dose 0.1-1.5 µM
# Target sequence in this assay (P50750 whole entry, looked up): as the sequence (P50750 whole entry, looked up) above
# Target sequence in this assay (Q96SW2 whole entry, looked up): as the sequence (Q96SW2 whole entry, looked up) above
# CWR22R [15] = assay: In vivo degradation of c-Myc expression in human 22Rv1 cells xenografted in BALB/c mouse tumor at 20 mg/kg, iv administered for 18 days by Western blotting analysis; assay type: functional, organism-based; conditions: time 18.0 day
# CWR22R [16] = assay: In vivo degradation of Ki67 protein level in human 22Rv1 cells xenografted in BALB/c mouse tumor at 20 mg/kg, iv administered for 18 days by immunohistochemistry analysis; assay type: functional, organism-based; conditions: time 18.0 day
# [17] = AUC in Sprague-Dawley rat at 2 mg/kg, iv by LC-MS/MS analysis; assay type: ADME, organism-based; conditions: in vivo
# [18] = target: Cyclin-dependent kinase 5 (Homo sapiens) (UniProt Q00535); assay: Induction of CDK5 protein degradation in human 22Rv1 cells at 500 nM incubated for 12 hrs by Western blotting analysis; assay type: cell-based
# [19] = target: T1, Protein cereblon/Cyclin-dependent kinase 9; assay: PROTAC activity at CRBN/CDK9 in human 22Rv1 cells assessed as degradation of CDK9 protein incubated for 12 hrs by Western blotting analysis; assay type: cell-based
# [20] = target: T1, Protein cereblon/Cyclin-dependent kinase 9; assay: PROTAC activity at CRBN/CDK9 in human 22Rv1 cells assessed as degradation of CDK9 protein at 100 nM incubated for 12 hrs by Western blotting analysis relative to control; assay type: cell-based
# Target sequence in this assay (P50750 whole entry, looked up): as the sequence (P50750 whole entry, looked up) above
# Target sequence in this assay (Q96SW2 whole entry, looked up): as the sequence (Q96SW2 whole entry, looked up) above
# [21] = Toxicity in BALB/c mouse xenografted with human 22Rv1 cells assessed as change in body weight at 10 mg/kg, iv administered for 20 days relative to control; assay type: organism-based, CWR22R; conditions: in vivo, 480 h, time 20 day
# [22] = target: T2, Cyclin-dependent kinase 9 (Homo sapiens, UniProt P50750); assay: Inhibition of CDK9 (unknown origin) in presence of ATP by ADP-Glo kinase assay
# [23] = target: Cyclin-dependent kinase 2 (Homo sapiens) (UniProt P24941); assay: Induction of CDK2 protein degradation in human 22Rv1 cells at 500 nM incubated for 12 hrs by Western blotting analysis; assay type: cell-based
# [24] = Toxicity in BALB/c mouse xenografted with human 22Rv1 cells assessed as mortality at 10 to 20 mg/kg, iv administered for 20 days; assay type: organism-based, CWR22R; conditions: in vivo, 480 h, dose 10-20 mg/kg, time 20 day
# [25] = target: T1, Protein cereblon/Cyclin-dependent kinase 9; assay: PROTAC activity at CRBN/CDK9 in human 22Rv1 cells assessed as reduction in RNAPII-ser 2 phosphorylation incubated for 24 hrs by Western blotting analysis; assay type: cell-based; conditions: dose 0.1-1.5 µM
# Target sequence in this assay (P50750 whole entry, looked up): as the sequence (P50750 whole entry, looked up) above
# Target sequence in this assay (Q96SW2 whole entry, looked up): as the sequence (Q96SW2 whole entry, looked up) above
# CWR22R [26] = assay: In vivo degradation of CDK9 protein level in human 22Rv1 cells xenografted in BALB/c mouse tumor at 20 mg/kg, iv administered for 18 days by immunohistochemistry analysis; assay type: functional, organism-based; conditions: time 18.0 day
# [27] = Toxicity in BALB/c mouse xenografted with human 22Rv1 cells assessed as change in body weight at 20 mg/kg, iv administered for 20 days relative to control; assay type: organism-based, CWR22R; conditions: in vivo, 480 h, time 20 day
# [28] = target: T1, Protein cereblon/Cyclin-dependent kinase 9; assay: PROTAC activity at CRBN/CDK9 in human 22Rv1 cells assessed as reduction in cyclin T1 expression at 0.1 to 1.5 uM incubated for 24 hrs by Western blotting analysis; assay type: cell-based; conditions: dose 0.1-1.5 µM
# [29] = target: T1, Protein cereblon/Cyclin-dependent kinase 9; assay: PROTAC activity at CRBN/CDK9 in human 22Rv1 cells assessed as degradation of CDK9 protein at 0.1 uM incubated for 12 hrs in presence of LWT-111 by Western blotting analysis; assay type: cell-based
# [30] = target: Cyclin-dependent kinase 4 (Homo sapiens) (UniProt P11802); assay: Induction of CDK4 protein degradation in human 22Rv1 cells at 500 nM incubated for 12 hrs by Western blotting analysis; assay type: cell-based
# CWR22R [31] = assay: In vivo degradation of CDK9 expression in human 22Rv1 cells xenografted in BALB/c mouse tumor at 20 mg/kg, iv administered for 18 days by Western blotting analysis; assay type: functional, organism-based; conditions: time 18.0 day
# [32] = target: Cyclin-dependent kinase 7 (Homo sapiens) (UniProt P50613); assay: Induction of CDK7 protein degradation in human 22Rv1 cells at 500 nM incubated for 12 hrs by Western blotting analysis; assay type: cell-based
# [33] = Solubility of the compound in water at pH 6.0 by shake flask method; assay type: physicochemical
# CWR22R [34] = assay: Antiproliferative activity against human 22Rv1 cells assessed as reduction in colony formation incubated for 2 weeks by crystal violet staining based assay; assay type: functional, cell-based; conditions: dose 7.8-62.5 nM
# [35] = target: T1, Protein cereblon/Cyclin-dependent kinase 9; assay: PROTAC activity at CRBN/CDK9 in human 22Rv1 cells assessed as reduction in Mcl-1 expression incubated for 24 hrs by Western blotting analysis; assay type: cell-based; conditions: dose 0.1-1.5 µM
# CWR22R [36] = assay: In vivo degradation of ARv7 expression in human 22Rv1 cells xenografted in BALB/c mouse tumor at 20 mg/kg, iv administered for 18 days by Western blotting analysis; assay type: functional, organism-based; conditions: time 18.0 day
# [37] = target: T1, Protein cereblon/Cyclin-dependent kinase 9; assay: PROTAC activity at CRBN/CDK9 in human 22Rv1 cells assessed as degradation of CDK9 protein at 0.1 uM incubated for 12 hrs in presence of thalidomide by Western blotting analysis; assay type: cell-based
# [38] = target: T2, Cyclin-dependent kinase 9; assay: Inhibition of CDK9 (unknown origin) at 20 nM in presence of ATP by ADP-Glo kinase assay relative to control
# [39] = target: Cyclin-dependent kinase 6 (Homo sapiens) (UniProt Q00534); assay: Induction of CDK6 protein degradation in human 22Rv1 cells at 500 nM incubated for 12 hrs by Western blotting analysis; assay type: cell-based
# CWR22R [40] = assay: In vivo degradation of Mcl-1 expression in human 22Rv1 cells xenografted in BALB/c mouse tumor at 20 mg/kg, iv administered for 18 days by Western blotting analysis; assay type: functional, organism-based; conditions: time 18.0 day
# [41] = target: T1, Protein cereblon/Cyclin-dependent kinase 9; assay: PROTAC activity at CRBN/CDK9 in human 22Rv1 cells assessed as degradation of CDK9 protein at 100 nM incubated for 12 hrs by Western blotting analysis; assay type: cell-based
# T2 sequence (P50750 whole entry): as the sequence (P50750 whole entry, looked up) above
# Sequence of Cyclin-dependent kinase 6 (Homo sapiens) (Q00534 whole entry): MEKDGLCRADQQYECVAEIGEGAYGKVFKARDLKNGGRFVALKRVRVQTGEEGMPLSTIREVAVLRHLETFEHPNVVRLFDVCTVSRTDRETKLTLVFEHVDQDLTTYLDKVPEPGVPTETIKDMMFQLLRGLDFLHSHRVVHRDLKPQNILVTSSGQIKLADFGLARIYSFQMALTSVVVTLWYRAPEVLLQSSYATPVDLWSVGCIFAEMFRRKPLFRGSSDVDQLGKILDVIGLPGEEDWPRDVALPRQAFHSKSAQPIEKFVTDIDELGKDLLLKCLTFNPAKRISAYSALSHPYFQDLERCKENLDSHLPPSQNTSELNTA
# Sequence of Cyclin-dependent kinase 4 (Homo sapiens) (P11802 whole entry): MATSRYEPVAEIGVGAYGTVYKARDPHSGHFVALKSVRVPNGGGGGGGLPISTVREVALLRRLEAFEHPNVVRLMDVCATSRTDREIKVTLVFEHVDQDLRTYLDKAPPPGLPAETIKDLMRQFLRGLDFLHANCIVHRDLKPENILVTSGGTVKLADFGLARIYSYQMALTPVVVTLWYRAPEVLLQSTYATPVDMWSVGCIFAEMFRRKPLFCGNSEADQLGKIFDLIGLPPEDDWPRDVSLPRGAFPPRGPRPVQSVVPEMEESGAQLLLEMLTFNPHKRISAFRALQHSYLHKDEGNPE
# Sequence of Cyclin-dependent kinase 7 (Homo sapiens) (P50613 whole entry): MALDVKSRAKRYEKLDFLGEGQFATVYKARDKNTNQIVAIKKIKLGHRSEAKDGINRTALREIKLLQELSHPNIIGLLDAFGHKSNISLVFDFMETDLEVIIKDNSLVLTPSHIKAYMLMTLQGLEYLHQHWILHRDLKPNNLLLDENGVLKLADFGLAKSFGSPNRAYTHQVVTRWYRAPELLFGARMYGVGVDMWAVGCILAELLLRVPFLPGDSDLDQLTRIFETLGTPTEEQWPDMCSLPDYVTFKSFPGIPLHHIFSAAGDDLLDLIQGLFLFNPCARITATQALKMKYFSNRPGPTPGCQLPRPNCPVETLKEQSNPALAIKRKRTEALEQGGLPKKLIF
# Sequence of Cyclin-dependent kinase 5 (Homo sapiens) (Q00535 whole entry, looked up): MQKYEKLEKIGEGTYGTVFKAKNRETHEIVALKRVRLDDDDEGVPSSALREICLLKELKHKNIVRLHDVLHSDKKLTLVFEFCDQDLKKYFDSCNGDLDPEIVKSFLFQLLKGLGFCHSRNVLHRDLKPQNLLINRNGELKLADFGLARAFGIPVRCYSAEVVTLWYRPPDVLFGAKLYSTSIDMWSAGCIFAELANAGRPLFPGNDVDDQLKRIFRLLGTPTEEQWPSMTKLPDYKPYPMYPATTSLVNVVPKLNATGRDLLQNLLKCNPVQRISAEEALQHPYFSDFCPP
smiles,measurement,setting,value
COc1cc(O)c2c(=O)cc(-c3ccc(N4CCN(CC5CCN(c6ccc7c(c6)C(=O)N(C6CCC(=O)NC6=O)C7=O)CC5)CC4)cc3)oc2c1C1=CCN(C)CC1 (stereo not given),solubility thermodynamic,[1],53 µg/mL
same,half-life,[2],11.1 h
same,Activity,CWR22R [3],100%
same,IC50,CWR22R [4],60 nM
same,inhibition in vivo at 10 mg/kg,CWR22R [5],65.7%
same,Activity,CWR22R [6],Active
same,Activity,CWR22R [7],Dose-Dependent Effect
same,Activity,[8],Tde
same,half-life at 10 µM,[9],1.62 h
same,Vd,[10],22.6 L/kg
same,Activity,[11],100%
same,Activity,[12],inactive
same,inhibition in vivo at 20 mg/kg,CWR22R [13],75.1%
same,Activity,[14],Dose-Dependent Effect
same,Activity,CWR22R [15],Active
same,Activity,CWR22R [16],Active
same,AUC,[17],681 ng·h/mL
same,Activity,[18],inactive
same,Activity,[19],Dose-Dependent Effect
same,DC50,[19],43 nM
same,Activity,[20],80%
same,Activity,[21],12.5%
same,IC50,[22],3.3 nM
same,Activity,[23],inactive
same,Activity,[24],Non-Toxic
same,Activity,[25],Dose-Dependent Effect
same,Activity,CWR22R [26],Active
same,Activity,[27],15.3%
same,Activity,[28],Active
same,Activity,[29],inactive
same,Activity,[30],inactive
same,Activity,CWR22R [31],Active
same,Activity,[32],inactive
same,solubility thermodynamic,[33],125 µg/mL
same,Activity,CWR22R [34],Dose-Dependent Effect
same,Activity,[35],Dose-Dependent Effect
same,Activity,CWR22R [36],Active
same,Activity,[37],inactive
same,inhibition,[38],85.6%
same,Activity,[39],inactive
same,Activity,CWR22R [40],Active
COc1cc(O)c2c(=O)cc(-c3ccc(N4CCN(C(=O)CCCCCCCCCOc5cccc6c5C(=O)N(C5CCC(=O)NC5=O)C6=O)CC4)cc3)oc2c1C1=CCN(C)CC1 (stereo not given),solubility thermodynamic,[1],< 10 µg/mL
same,Activity,[41],Active
same,IC50,CWR22R [4],120 nM
same,solubility thermodynamic,[33],< 10 µg/mL
same,inhibition,[38],34.2%
COc1cc(O)c2c(=O)cc(-c3ccc(N4CCN(C(=O)CCCCCCCOc5cccc6c5C(=O)N(C5CCC(=O)NC5=O)C6=O)CC4)cc3)oc2c1C1=CCN(C)CC1 (stereo not given),solubility thermodynamic,[1],< 10 µg/mL
same,IC50,CWR22R [4],1810 nM
same,solubility thermodynamic,[33],< 10 µg/mL
same,inhibition,[38],69.5%
